The text below walks through data of patent US10030039B2, “Anti-cancer agent and cancer cell killing method” (IHI Corporation, priority 2014, dated 2018).

The assay has as its system cancer cell line (MDA-MB-231) for triple-negative breast cancer. Kind of assay: Cancer Cell Killing Effect Assay 5 (XTT assay). The format is cell-based. The settings on record: MDA-MB-231, 24 hours, 37° C., 5% CO2; 3.750 and 7.500 μM; FIG. 6. In general terms: Tetrazolium assays rely on reduction of a dye to a coloured formazan, in cell work by metabolically active cells.

Description: Cancer Cell Line: Cancer Cell Line (MDA-MB-231) (the G0 Phase) for Triple-Negative Breast Cancer XTT cell proliferation assay kit (manufactured by ATCC) The XTT labeled liquid mixture was adjusted by mixing the XTT reagent (5 ml) and an activation solution (0.1 ml). The cell proliferation assay was conducted in accordance with ATCC's experiment protocol. […] The cancer cell line for the triple-negative breast cancer was cultured by the same method as that of Example 4. RPMI-1640, 10% inactivated bovine serum (GIBCO, USA), and 100 units/ml of penicillin-streptomycin were added to each well (100 μl) of the microplate (for cell proliferation and with 96 holes and a flat bottom) and 3×10^5 cultured cells were seeded. […] The XTT assay was performed by the same method as that of Example 4. The cell survival rate was calculated on the basis of the results of the absorbance measurement and by the method explained in [Cancer Cell Killing Effect Assay 3].

`CC(=O)O[C@H]1C(=O)[C@@]2(C)[C@H]([C@H](OC(=O)c3ccccc3)[C@]3(O)C[C@H](OC(=O)[C@H](O)[C@@H](NC(=O)c4ccccc4)c4ccccc4)C(C)=C1C3(C)C)[C@]1(OC(C)=O)CO[C@@H]1C[C@@H]2O` [paclitaxel]: the “concentration dependence of reduction of cell survival rate / cell killing effect” value is recorded as “concentration-dependent up to a specified concentration”.
